Laboratory results taken from patent publication US12529692B2, “Live cell imaging dynamic BH3 profiling” (Dana-Farber Cancer Institute, Inc., priority 2019, dated 2026).

Legend:
Format in all cases: cell-based
[1] = system: Pancreatic 8902 (Panc8902) cell line; assay: Live cell imaging dynamic BH3 profiling (LCI-DBP) on Pancreatic 8902 cell line
Experimental: Cells were imaged by live single-cell imaging at 18 minutes, 40 minutes, 48 minutes, 58 minutes, and 120 minutes following BH3 peptide addition (FIG. 2A). Nuclear staining was detected as a blue emission from Hoechst 33342, and mitochondrial transmembrane potential staining was detected as a green emission from TMRE. […]

MMTV-PyMT-T1 cells = assay: LCI-DBP on MMTV breast cancer PDX model; settings: MMTV-PyMT-T1 cells treated overnight, then BIM BH3 peptide 10 μM final; imaged 0-120 minutes; compared to undrugged (DMSO) cells; FIG. 3A
Experimental: The plates with cells were stained with 10 μL per well of LCI-Staining Solution for 20 minutes at 37° C. in a 3307 Steri-Cult Incubator, Class 100 HEP. An EL406™ Combination Microplate Washer Dispenser was then used to aspirate the volume in the wells to 10 μL. The plates with cells were washed three times with LCI-Wash buffer to a final residual volume of 10 μL per well using the EL406™ Combination Microplate Washer Dispenser. The plate was then placed on an ImageXpress® Micro 4 High Content Screening System with the required settings, taking an image every two minutes. After two images, 10 μL of the selected LCI-DBP BIM peptide buffer(s) were added to the wells. The plate was then imaged for at most 2 hours.
As depicted, cells are plated on collagen-coated plates and allowed to incubate for 16-24 hours in the presence of a test agent. […] After all images are acquired, image analysis software is used to quantify differences in TMRE release between drug-treated cells and vehicle-treated cells. […]
Cells were imaged by live single-cell imaging at 0 minutes, 42 minutes, 50 minutes, 66 minutes, and 120 minutes following BH3 peptide addition (FIG. 3A). Nuclear staining was detected as a blue emission from Hoechst 33342, and mitochondrial transmembrane potential staining was detected as a […] emission from TMRE.

cells of a sample = assay: LCI-DBP example workflow (FIG. 1A), delta priming compared across treatments; settings: bar graph of FIG. 1A comparing different treatments; cells not specified
Experimental: An example workflow of live cell imaging dynamic BH3 profiling (LCI-DBP) is depicted in FIG. 1A. As shown, in some embodiments, cells are plated in a well (e.g., a well of a multi-well plate). In some embodiments, the plated cells are contacted with a test agent or a control solution (e.g., a vehicle solution used with the test agent, such as water, buffer, or a solvent), and the test agent is incubated with the cells for a treatment period. In some embodiments, the treated cells are stained with desired markers for imaging (e.g., nuclear and/or mitochondrial markers). In some embodiments, the cells are then treated with a reagent for measuring MOMP, such as a potentiometric dye. In some embodiments, the stained and treated cells are then contacted with a BH3 peptide. Cells treated with BH3 peptide are imaged by live cell imaging to detect the reagent for measuring MOMP. […] In some embodiments, the loss in emission from the potentiometric dye is evaluated for cells treated with the test agent as compared with cells that were not treated with the test agent. In some embodiments, the difference in emission between treated and untreated cells is determined to obtain a parameter referred to herein as delta priming. Image analysis software, or any suitable algorithm known to one skilled in the art, may be used to determine the difference in emission, or it may be determined manually. […]

**Q.** With `Cc1c(-c2ccc(N3CCc4cccc(C(=O)Nc5nc6ccccc6s5)c4C3)nc2C(=O)O)cnn1CC12CC3CC(CC(C3)C1)C2` [A1331852] as the compound, how does the “loss in mitochondrial potential, detected as loss in TMRE emission over time” value ([1]; Panc8902 cells treated overnight, then BIM BH3 peptide 10 μM final, imaged 18-120 minutes, compared to undrugged (DMSO) cells, FIG. 2A) read?
**A.** Its value is “observable accelerated loss in mitochondrial potential”.

**Q.** For `CO[C@H]1/C=C\C=C(/C)C(=O)NC2=CC(=O)C(NCCN(C)C)=C(C[C@@H](C)C[C@H](OC)[C@H](O)[C@@H](C)/C=C(\C)[C@@H]1OC(N)=O)C2=O` [17-DMAG], which “loss in mitochondrial potential, detected as loss in TMRE emission over time” value (MMTV-PyMT-T1 cells) is on record?
**A.** Its value is “observable accelerated loss in mitochondrial potential”.

**Q.** `CC1(C)CCC(c2ccc(Cl)cc2)=C(CN2CCN(c3ccc(C(=O)NS(=O)(=O)c4ccc(N[C@H](CCN5CCOCC5)CSc5ccccc5)c(S(=O)(=O)C(F)(F)F)c4)cc3)CC2)C1` [Navitoclax] was tested. Which “half-time of TMRE loss in single cells (measurement of apoptotic priming)” value ([1]; Panc8902 cells, drug 1 μM overnight, BIM BH3 peptide 1 μM final, monitored over 120 minutes, versus DMSO, FIG. 5C) did it give?
**A.** Its value is “decrease in the half-time of TMRE loss”.

**Q.** And the delta priming (cells of a sample)?
**A.** The delta priming was “highest value for delta priming”.
